Calls of active or inactive are those of the source. No cut-off for these calls is given here.

These results are taken from ChEMBL document CHEMBL4828765, “Design and Development of a Chemical Probe for Pseudokinase Ca2+/calmodulin-Dependent Ser/Thr Kinase” (J Med Chem, 2021).

In assay [1] the target is T1, Casein kinase I isoform epsilon (Homo sapiens, UniProt P49674). Briefly: Binding affinity to human CSNK1E at 1 uM by KINOMEscan scanMAX assay relative to control.
Target sequence in this assay (P49674 whole entry, looked up, canonical isoform): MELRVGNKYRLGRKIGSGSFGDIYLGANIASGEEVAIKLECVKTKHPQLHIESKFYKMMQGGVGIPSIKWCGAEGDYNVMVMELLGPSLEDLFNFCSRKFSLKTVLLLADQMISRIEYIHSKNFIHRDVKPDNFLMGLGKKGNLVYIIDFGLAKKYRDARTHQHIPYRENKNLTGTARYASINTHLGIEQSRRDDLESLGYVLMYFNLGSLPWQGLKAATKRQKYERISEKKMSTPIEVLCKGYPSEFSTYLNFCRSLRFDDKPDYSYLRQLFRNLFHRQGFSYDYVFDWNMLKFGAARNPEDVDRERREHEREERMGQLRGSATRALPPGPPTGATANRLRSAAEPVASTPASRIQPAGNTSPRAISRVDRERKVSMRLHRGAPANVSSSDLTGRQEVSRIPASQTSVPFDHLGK
Assay [2] has as its target T2, Tyrosine-protein kinase Mer (Homo sapiens) (UniProt Q12866).
T2 sequence (whole entry): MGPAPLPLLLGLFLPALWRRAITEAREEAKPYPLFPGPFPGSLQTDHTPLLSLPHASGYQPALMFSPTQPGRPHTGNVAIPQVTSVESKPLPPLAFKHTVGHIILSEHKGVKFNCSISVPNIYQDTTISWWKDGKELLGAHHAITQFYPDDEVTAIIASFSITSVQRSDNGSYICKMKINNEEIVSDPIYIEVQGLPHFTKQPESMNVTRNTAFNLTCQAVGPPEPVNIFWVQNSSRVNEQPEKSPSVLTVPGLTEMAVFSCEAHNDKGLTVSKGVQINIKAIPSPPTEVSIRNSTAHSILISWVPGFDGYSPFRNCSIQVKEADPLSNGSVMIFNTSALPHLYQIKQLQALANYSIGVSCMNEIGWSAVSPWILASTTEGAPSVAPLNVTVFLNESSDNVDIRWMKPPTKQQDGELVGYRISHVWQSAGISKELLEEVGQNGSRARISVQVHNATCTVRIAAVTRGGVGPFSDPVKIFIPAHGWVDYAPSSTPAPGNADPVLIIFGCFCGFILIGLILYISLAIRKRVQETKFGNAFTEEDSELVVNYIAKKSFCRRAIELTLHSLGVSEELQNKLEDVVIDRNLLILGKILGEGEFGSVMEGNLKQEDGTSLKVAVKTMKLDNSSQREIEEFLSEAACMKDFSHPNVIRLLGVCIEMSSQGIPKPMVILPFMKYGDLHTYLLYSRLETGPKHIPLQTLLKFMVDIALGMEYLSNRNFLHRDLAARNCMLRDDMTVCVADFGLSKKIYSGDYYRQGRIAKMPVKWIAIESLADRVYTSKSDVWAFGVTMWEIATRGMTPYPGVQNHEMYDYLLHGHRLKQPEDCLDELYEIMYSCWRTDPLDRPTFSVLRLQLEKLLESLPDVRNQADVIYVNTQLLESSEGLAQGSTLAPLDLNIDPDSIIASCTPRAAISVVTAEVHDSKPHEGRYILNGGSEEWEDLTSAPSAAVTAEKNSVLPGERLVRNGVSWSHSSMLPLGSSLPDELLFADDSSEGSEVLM
Briefly: Binding affinity to human MERTK at 1 uM by KINOMEscan scanMAX assay relative to control.

The target in assay [3] is T3, Tyrosine-protein kinase ABL1 (Homo sapiens, UniProt P00519). Briefly: Binding affinity to human non-phosphorylated ABL1 at 1 uM by KINOMEscan scanMAX assay relative to control.
T3 sequence (P00519 whole entry, the tested form may be a part): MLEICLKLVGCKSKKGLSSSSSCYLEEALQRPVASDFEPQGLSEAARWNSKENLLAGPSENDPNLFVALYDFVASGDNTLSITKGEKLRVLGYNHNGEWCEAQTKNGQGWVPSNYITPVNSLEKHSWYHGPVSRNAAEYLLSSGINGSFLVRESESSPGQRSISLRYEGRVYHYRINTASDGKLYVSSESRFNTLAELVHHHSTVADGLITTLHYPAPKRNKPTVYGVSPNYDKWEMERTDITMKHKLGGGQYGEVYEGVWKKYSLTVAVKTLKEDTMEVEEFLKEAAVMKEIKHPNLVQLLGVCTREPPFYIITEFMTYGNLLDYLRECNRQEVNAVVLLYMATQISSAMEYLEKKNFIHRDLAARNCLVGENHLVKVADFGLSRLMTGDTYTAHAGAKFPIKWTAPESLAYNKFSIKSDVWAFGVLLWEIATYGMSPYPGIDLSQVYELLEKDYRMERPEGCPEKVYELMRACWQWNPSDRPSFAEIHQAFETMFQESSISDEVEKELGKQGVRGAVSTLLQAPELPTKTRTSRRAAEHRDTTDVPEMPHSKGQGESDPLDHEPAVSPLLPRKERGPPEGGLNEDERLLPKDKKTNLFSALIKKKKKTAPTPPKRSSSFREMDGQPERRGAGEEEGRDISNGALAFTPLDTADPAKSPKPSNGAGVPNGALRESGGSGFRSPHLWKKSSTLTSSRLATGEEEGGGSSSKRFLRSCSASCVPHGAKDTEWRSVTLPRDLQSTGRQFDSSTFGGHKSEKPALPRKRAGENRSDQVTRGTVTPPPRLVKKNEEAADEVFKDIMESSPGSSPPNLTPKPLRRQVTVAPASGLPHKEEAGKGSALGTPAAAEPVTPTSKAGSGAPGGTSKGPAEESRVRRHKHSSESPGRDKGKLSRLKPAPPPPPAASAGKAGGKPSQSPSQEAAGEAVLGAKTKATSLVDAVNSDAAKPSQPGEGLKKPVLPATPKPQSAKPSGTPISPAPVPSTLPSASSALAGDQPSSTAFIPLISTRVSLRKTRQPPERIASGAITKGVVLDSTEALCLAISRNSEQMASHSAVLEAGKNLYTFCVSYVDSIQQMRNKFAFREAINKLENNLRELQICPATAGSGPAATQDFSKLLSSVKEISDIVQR
Assay [4] addresses T4, Ribosomal protein S6 kinase alpha-2 (Homo sapiens, UniProt Q15349). Briefly: Binding affinity to human N-terminal RSK3 kinase domain 1 at 1 uM by KINOMEscan scanMAX assay relative to control.
The target in assay [5] is T5, Mitogen-activated protein kinase kinase kinase 2 (Homo sapiens) (UniProt Q9Y2U5).
T5 sequence (whole entry): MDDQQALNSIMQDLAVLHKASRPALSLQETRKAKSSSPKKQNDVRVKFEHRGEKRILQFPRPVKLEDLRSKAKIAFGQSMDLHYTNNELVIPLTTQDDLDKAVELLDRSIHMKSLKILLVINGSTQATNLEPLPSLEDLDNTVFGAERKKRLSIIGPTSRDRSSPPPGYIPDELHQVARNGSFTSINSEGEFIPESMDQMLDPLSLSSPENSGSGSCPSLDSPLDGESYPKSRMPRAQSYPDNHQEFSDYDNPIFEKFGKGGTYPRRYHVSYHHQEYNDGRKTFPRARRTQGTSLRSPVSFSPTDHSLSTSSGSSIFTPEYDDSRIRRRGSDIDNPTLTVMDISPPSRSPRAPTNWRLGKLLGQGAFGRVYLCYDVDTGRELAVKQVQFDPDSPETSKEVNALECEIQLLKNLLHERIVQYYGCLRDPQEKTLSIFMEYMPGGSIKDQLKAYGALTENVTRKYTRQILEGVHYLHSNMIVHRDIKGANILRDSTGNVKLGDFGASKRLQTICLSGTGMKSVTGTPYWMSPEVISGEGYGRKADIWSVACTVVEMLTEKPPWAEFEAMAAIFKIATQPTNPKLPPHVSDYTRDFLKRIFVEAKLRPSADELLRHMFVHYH
As to the kind of experiment: Binding affinity to human MAP3K2 at 1 uM by KINOMEscan scanMAX assay relative to control.

For assay [6], the target named is Hepatocyte growth factor receptor (Homo sapiens) (UniProt P08581). As to the kind of experiment: Binding affinity to human MET at 1 uM by KINOMEscan scanMAX assay relative to control.
Chain of Hepatocyte growth factor receptor (Homo sapiens) (P08581 whole entry): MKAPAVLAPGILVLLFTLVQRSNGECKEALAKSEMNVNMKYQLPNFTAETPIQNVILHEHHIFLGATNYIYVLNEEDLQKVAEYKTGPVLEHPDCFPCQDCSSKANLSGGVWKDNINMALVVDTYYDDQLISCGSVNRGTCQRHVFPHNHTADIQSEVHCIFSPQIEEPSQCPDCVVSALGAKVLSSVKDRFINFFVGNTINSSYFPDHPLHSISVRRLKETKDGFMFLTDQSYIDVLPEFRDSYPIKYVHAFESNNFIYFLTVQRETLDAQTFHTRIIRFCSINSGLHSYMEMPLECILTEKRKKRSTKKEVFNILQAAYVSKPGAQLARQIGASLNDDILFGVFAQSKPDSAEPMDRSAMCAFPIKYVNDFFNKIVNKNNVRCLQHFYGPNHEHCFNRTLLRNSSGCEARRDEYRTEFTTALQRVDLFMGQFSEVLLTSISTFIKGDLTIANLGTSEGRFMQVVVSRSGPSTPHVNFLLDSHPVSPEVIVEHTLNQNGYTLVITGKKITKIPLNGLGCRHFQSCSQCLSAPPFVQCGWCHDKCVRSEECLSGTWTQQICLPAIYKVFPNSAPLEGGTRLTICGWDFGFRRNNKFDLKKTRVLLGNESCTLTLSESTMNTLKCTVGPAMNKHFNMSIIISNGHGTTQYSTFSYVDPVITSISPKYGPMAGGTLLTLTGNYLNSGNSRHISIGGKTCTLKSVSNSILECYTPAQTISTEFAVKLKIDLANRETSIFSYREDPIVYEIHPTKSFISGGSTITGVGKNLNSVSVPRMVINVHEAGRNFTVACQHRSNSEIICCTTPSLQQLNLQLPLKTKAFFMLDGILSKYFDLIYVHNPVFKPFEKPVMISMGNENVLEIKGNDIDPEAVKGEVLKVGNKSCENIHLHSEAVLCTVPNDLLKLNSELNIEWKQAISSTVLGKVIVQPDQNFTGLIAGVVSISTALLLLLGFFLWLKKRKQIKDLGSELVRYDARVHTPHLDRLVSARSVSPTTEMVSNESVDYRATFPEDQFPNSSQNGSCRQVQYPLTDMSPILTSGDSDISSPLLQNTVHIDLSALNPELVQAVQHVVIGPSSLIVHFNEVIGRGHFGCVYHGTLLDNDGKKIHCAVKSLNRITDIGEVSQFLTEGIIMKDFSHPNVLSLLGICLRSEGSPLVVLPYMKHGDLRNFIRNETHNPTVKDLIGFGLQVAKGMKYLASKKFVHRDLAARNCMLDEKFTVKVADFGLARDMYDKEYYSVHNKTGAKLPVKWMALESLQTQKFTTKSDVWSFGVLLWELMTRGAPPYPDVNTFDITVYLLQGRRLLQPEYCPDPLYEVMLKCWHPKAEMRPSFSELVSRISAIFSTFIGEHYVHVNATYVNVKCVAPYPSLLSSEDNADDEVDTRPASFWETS
Assay [7] addresses Tyrosine-protein kinase receptor UFO (Homo sapiens) (UniProt P30530). As to the kind of experiment: Binding affinity to human AXL at 1 uM by KINOMEscan scanMAX assay relative to control.
Assay [8] concerns the target T1, Casein kinase I isoform epsilon. As to the kind of experiment: Binding affinity to human CSNK1E by KINOMEscan scanMAX assay.
Target sequence in this assay (P49674 whole entry, canonical isoform): as the sequence (P49674 whole entry, looked up, canonical isoform) above
The target in assay [9] is T6, Tyrosine-protein kinase Mer (Homo sapiens, UniProt Q12866).
T6 sequence (Q12866 whole entry): T2 sequence (whole entry)
Briefly: Binding affinity to human MERTK by KINOMEscan scanMAX assay.

Assay [10] has as its target T3, Tyrosine-protein kinase ABL1. As to the kind of experiment: Binding affinity to human non-phosphorylated ABL1 by KINOMEscan scanMAX assay.
Assay [11] addresses T4, Ribosomal protein S6 kinase alpha-2. Briefly: Binding affinity to human N-terminal RSK3 kinase domain 1 by KINOMEscan scanMAX assay.
Assay [12] has as its target T7, Mitogen-activated protein kinase kinase kinase 2 (Homo sapiens, UniProt Q9Y2U5).
T7 sequence (Q9Y2U5 whole entry): T5 sequence (whole entry)
Briefly: Binding affinity to human MAP3K2 by KINOMEscan scanMAX assay.

The target of assay [13] is T1, Casein kinase I isoform epsilon. As to the kind of experiment: Binding affinity to CSNK1E (unknown origin) assessed as change in melting temperature by SYPRO orange dye based DSF assay.
Target sequence in this assay (P49674 whole entry, looked up, canonical isoform): as above
Assay [14] has as its target T2, Tyrosine-protein kinase Mer (Homo sapiens). Briefly: Binding affinity to MERTK (571 to 864 residue) (unknown origin) expressed in Escherichia coli Rosetta cells assessed as change in melting temperature by SYPRO orange dye based DSF assay.
The target in assay [15] is Tyrosine-protein kinase receptor UFO (Homo sapiens) (UniProt P30530). As to the kind of experiment: Binding affinity to AXL (unknown origin) assessed as change in melting temperature by SYPRO orange dye based DSF assay.
The target in assay [16] is T8, Tyrosine-protein kinase receptor TYRO3 (Homo sapiens, UniProt Q06418).
T8 sequence (Q06418 whole entry): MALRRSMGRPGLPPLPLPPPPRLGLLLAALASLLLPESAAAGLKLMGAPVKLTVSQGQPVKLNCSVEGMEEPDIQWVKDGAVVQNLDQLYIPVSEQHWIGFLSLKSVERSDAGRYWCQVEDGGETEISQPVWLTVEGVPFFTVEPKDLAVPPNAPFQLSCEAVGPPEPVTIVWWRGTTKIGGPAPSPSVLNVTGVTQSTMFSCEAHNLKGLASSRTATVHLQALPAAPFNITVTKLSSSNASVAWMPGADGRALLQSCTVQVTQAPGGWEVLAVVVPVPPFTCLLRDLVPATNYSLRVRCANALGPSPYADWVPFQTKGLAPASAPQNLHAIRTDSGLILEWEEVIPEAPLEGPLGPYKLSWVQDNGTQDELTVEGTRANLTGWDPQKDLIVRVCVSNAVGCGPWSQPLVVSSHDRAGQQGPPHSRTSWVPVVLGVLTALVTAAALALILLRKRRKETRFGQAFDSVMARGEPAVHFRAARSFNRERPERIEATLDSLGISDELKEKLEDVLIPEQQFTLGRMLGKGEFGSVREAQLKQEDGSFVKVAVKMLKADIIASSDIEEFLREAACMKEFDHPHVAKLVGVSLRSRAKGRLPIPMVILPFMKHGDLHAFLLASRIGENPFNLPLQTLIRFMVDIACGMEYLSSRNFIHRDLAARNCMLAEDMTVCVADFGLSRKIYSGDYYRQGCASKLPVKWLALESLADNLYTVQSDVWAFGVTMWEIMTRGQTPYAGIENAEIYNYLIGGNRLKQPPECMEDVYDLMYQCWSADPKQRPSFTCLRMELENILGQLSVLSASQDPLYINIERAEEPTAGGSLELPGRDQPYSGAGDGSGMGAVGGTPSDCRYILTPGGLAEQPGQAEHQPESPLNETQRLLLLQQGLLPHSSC
Briefly: Inhibition of tracer K5 binding to NanoLuc-fused TYRO3 (unknown origin) expressed in HEK293T cells measured after 2 hrs by NanoBRET assay. Format: cell-based.

The species named for assay [17] is Homo sapiens. As to the kind of experiment: Binding affinity to MERTK-AXL mutant (unknown origin) expressed in Escherichia coli Rosetta cells assessed as change in melting temperature by SYPRO orange dye based DSF assay.
Assay [18] has as its target T6, Tyrosine-protein kinase Mer. Briefly: Inhibition of tracer K5 binding to NanoLuc-fused MERTK (unknown origin) expressed in HEK293T cells measured after 2 hrs by NanoBRET assay. The assay is classed as cell-based.
Assay [19] deals with T3, Tyrosine-protein kinase ABL1. Briefly: Inhibition of tracer K5 binding to NanoLuc-fused ABL1 (unknown origin) expressed in HEK293T cells measured after 2 hrs by NanoBRET assay. The assay is classed as cell-based.
The target is the same in assay [20].
Description: Binding affinity to non-phosphorylated ABL1 (unknown origin) assessed as change in melting temperature by SYPRO orange dye based DSF assay
In assay [21] the target is T9, Tyrosine-protein kinase receptor UFO (Homo sapiens, UniProt P30530).
T9 sequence (P30530 whole entry): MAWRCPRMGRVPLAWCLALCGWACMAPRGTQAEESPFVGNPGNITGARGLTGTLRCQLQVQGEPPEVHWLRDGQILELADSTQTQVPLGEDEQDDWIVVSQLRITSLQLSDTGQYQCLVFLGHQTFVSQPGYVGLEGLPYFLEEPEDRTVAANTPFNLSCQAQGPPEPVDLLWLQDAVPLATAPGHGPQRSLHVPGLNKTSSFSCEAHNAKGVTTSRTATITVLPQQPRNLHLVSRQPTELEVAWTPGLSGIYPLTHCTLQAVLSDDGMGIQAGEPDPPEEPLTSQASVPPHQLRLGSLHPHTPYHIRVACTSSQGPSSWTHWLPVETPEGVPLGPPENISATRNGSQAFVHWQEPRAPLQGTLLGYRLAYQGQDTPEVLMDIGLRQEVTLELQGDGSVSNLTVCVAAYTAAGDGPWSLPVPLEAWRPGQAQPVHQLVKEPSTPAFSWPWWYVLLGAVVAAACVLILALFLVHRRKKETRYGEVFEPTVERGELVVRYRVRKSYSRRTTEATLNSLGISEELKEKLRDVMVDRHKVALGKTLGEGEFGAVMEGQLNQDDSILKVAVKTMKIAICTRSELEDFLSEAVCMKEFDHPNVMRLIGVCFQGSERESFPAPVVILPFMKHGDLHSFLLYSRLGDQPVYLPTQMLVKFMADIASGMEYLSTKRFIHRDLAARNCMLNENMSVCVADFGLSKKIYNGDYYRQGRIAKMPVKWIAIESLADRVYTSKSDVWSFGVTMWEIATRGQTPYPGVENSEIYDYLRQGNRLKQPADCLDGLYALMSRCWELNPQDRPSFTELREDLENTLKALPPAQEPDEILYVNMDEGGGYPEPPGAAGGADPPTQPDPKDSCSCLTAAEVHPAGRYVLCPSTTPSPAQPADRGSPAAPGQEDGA
As to the kind of experiment: Inhibition of tracer K5 binding to NanoLuc-fused AXL (unknown origin) expressed in HEK293T cells measured after 2 hrs by NanoBRET assay. The assay is classed as cell-based.

Assay [22] addresses T1, Casein kinase I isoform epsilon. As to the kind of experiment: Inhibition of tracer K5 binding to NanoLuc-fused CSNK1E (unknown origin) expressed in HEK293T cells measured after 2 hrs by NanoBRET assay. The assay is classed as cell-based.
Target sequence in this assay (P49674 whole entry, canonical isoform): as the sequence (P49674 whole entry, looked up, canonical isoform) above
Assay [23] has as its system P19. As to the kind of experiment: Induction of cell death in mouse P19 cell differentiation model at 2 uM preincubated for 4 days followed by cytosine arabinoside addition measured after 6 hrs by immunostaining based microscopic analysis. The assay is classed as functional. Conditions: time 102.0 hrs.
In assay [24] the test system is P19. As to the kind of experiment: Induction of cell death in mouse P19 cell differentiation model at 1 uM preincubated for 4 days followed by cytosine arabinoside addition measured after 6 hrs by immunostaining based microscopic analysis. The following applies: time 102.0 hrs. Format: functional.
In assay [25] the test system is P19. Briefly: Induction of beta3-tubulin abundance in mouse P19 cells at 1 uM preincubated for 4 days followed by cytosine arabinoside addition measured after 6 hrs by immunostaining based microscopic analysis. Format: functional, cell-based. Conditions: time 4.0 day.

T4 sequence (Q15349 whole entry, the tested form may be a part): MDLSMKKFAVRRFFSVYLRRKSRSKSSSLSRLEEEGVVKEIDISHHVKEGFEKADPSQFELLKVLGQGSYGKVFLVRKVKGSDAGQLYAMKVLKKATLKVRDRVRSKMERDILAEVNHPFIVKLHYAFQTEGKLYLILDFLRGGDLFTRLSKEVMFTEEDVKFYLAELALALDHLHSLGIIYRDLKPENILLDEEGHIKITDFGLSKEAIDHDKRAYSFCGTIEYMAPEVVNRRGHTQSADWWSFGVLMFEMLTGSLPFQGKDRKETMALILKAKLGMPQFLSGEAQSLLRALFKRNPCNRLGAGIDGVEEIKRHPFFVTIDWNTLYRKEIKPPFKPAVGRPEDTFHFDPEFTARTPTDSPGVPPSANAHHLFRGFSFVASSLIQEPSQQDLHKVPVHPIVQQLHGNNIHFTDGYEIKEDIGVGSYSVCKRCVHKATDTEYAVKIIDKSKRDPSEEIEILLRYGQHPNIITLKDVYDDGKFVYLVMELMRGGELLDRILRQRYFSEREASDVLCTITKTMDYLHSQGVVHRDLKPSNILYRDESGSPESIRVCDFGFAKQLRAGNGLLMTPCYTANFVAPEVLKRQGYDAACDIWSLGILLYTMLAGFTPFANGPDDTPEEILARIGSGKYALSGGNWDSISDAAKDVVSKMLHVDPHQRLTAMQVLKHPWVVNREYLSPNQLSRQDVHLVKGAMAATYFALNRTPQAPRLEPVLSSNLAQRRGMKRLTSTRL

As to `O=C(NCCCN1CCOC1=O)c1cnc(NCc2cc(Cl)ccc2Cl)nc1NC1CCCC1`, the Activity in assay [1] amounted to 76%; in assay [2], 75%; in assay [3], 73%; in assay [4] it was 67%; in assay [5], 63%; in [6], 63%. Also, in assay [7], the Activity turned out to be 61%. Moreover, the Kd turned out to be 0.77 µM in [8]; 0.57 µM in assay [9]; 0.74 µM in assay [10]; 1.3 µM in assay [11]; 0.69 µM in assay [12]. Further, the deltaTm was 5.6 K in assay [13]; -0.2 K in assay [14]; 0.2 K in [15]; 0.2 K in [17]; 8.6 K in assay [20]. Also, the IC50 in [16] was 0.7 µM; in assay [18], more than 10 µM; in assay [19] it was more than 10 µM. Besides, the affinity in assay [16], expressed as Ki, was 0.12 µM.

For the compound `Cc1cc(Br)c(CNc2ncc(C(=O)NCCCN3CCOC3=O)c(NC3CCCCC3)n2)cc1Br`, the deltaTm in assay [13] is 3.8 K; in assay [14], -0.5 K; in [17], 0.1 K; in assay [20] it was 8.4 K. For the same compound, the IC50 in assay [16] is 8.73 µM; in assay [18], more than 10 µM; in [21], more than 10 µM; in assay [19], more than 10 µM; in assay [22], 22.1 µM.

Regarding `CCN(Cc1ccc(Cl)cc1)c1ncc(C(=O)NCCCN2CCCC2=O)c(NC2CCCC2)n1`, the IC50 in assay [16], in assay [18], in assay [21] and in assay [19] was more than 10 µM each time. Also, the result in [23], in [24] and in assay [25] was inactive.

Take `O=C(NCCCN1CCCC1=O)c1cnc(NCc2ccc(Cl)cc2Cl)nc1NC1CCCC1`: the deltaTm came out at 2.1 K in [13], 0.1 K in assay [14], 0 K in assay [17] and 2.3 K in assay [20]. The IC50 in assay [16], in assay [18], in [21] and in assay [19] was more than 10 µM in each case.
